Measurements reported in patent US20250325552A1, “SUBSTITUTED THIADIAZOLYL DERIVATIVES AS DNA POLYMERASE THETA INHIBITORS” (IDEAYA Biosciences, Inc., priority 2020, published 2025).
pIC50: −log10 of the molar value.

biological target: Polθ theta (1-899) (hPolQ) (Homo sapiens (Human), UniProt O75417); assay: Biological Assay 1: Polθ ATPase activity, NADH oxidation-coupled enzymatic assay (10 nM enzyme, 30 min); type: biochemical; settings: Polθ (1-899) 10 nM, 100 μM ATP, 300 nM dT50 ssDNA; Examples 1 to 268; read-out: ATPase NADH coupling:Standard Screening:hPolQ IC50
Outline: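 ATP turnover was coupled to NADH oxidation and followed at 340 nm every minute for 30 min. Enzyme (residues 1-899, 10 nM) sat with compound for 15 min at room temperature before an equal-volume addition of 100 μM ATP plus 300 nM dT50 ssDNA. Progress-curve slopes from 10-point dilutions were fitted by a four-parameter model.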

Sequence of Polθ theta (1-899) (hPolQ) (O75417 1-899): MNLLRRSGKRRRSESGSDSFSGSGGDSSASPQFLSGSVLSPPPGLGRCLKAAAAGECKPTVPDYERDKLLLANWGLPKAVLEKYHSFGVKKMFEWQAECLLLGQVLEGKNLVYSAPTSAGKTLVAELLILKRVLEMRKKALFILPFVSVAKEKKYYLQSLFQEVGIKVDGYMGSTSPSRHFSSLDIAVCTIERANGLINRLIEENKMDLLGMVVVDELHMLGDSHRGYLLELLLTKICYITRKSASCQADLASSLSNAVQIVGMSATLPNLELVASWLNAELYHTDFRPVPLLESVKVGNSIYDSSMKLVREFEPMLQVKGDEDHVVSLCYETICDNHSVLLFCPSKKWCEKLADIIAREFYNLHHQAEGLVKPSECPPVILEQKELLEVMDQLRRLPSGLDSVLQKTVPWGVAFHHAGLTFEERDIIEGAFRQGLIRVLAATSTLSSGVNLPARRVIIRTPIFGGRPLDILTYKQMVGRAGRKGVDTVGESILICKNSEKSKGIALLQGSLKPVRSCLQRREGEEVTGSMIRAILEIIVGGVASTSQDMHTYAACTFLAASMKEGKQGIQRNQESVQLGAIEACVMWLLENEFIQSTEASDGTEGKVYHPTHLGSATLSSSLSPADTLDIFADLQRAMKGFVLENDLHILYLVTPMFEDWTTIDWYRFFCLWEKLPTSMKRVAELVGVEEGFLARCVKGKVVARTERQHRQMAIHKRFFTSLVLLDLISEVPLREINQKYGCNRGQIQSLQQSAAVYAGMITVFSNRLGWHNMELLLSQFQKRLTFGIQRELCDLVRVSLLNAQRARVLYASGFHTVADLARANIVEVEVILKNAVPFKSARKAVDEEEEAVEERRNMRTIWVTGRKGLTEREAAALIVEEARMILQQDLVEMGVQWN

pIC50 | SMILES
≥ 6.70 | COc1cnc(Cl)cc1-c1cc(C)ncc1C(=O)Nc1nnc(OCC2CC3CC2CN3C(=O)C(C)C)s1 (centres unmarked) [Example 156, 2′-chloro-N-(5-((2-isobutyryl-2-azabicyclo[2.2.1]heptan-5-yl)methoxy)-1,3,4-thiadiazol-2-yl)-5′-methoxy-6-methyl-[4,4′-bipyridine]-3-carboxamide]
≥ 6.70 | COc1cnc(Cl)cc1-c1cc(C)ncc1C(=O)Nc1nnc(OC[C@H]2COC[C@H]2C)s1 (single isomer, unassigned) [Example 267]
≥ 6.70 | COc1cnc(Cl)cc1-c1cc(C)ncc1C(=O)Nc1nnc(OCC2COC(C)C2)s1 (centres unmarked) [Example 262, 2′-chloro-5′-methoxy-6-methyl-N-(5-((5-methyltetrahydrofuran-3-yl)methoxy)-1,3,4-thiadiazol-2-yl)-(4,4′-bipyridine)-3-carboxamide]
≥ 6.70 | COc1cnc(Cl)cc1-c1cc(C)ncc1C(=O)Nc1nnc(OCC2CCNCC2)s1 [Example 174, 2′-chloro-5′-methoxy-6-methyl-N-(5-(piperidin-4-ylmethoxy)-1,3,4-thiadiazol-2-yl)-(4,4′-bipyridine)-3-carboxamide]
≥ 6.70 | Cc1cc(-c2ccnc(Cl)c2)c(C(=O)Nc2nnc(OCc3ccc(C(C)(C)O)cn3)s2)cn1 [Example 73, 2′-chloro-N-(5-((5-(2-hydroxypropan-2-yl)pyridin-2-yl)methoxy)-1,3,4-thiadiazol-2-yl)-6-methyl-(4,4′-bipyridine)-3-carboxamide]
≥ 6.70 | COc1cnc(Cl)cc1-c1cc(C)ncc1C(=O)Nc1nnc(OC[C@@]2(C)CCOC2)s1 (single isomer, unassigned) [Example 161]
≥ 6.70 | COc1cccc(F)c1-c1cc(C)ncc1C(=O)Nc1nnc(OCc2ccc(S(C)(=N)=O)cc2)s1 (racemic) [Example 79, 4-(2-fluoro-6-methoxyphenyl)-6-methyl-N-(5-((4-(S-methylsulfonimidoyl)benzyl)oxy)-1,3,4-thiadiazol-2-yl)nicotinamide]
≥ 6.70 | COc1c(C#N)cccc1-c1cc(C)ncc1C(=O)Nc1nnc(OCc2ccc(Cl)cn2)s1 [Example 21, N-(5-((5-chloropyridin-2-yl)methoxy)-1,3,4-thiadiazol-2-yl)-4-(3-cyano-2-methoxyphenyl)-6-methylnicotinamide]
≥ 6.70 | COc1cnc(Cl)cc1-c1cc(C)ncc1C(=O)Nc1nnc(OC[C@@H]2CCC[C@H]2O)s1 (single isomer, unassigned) [Example 255, 2′-chloro-N-(5-((2-hydroxycyclopentyl)methoxy)-1,3,4-thiadiazol-2-yl)-5′-methoxy-6-methyl-(4,4′-bipyridine)-3-carboxamide]
≥ 6.70 | COc1cnc(Cl)cc1-c1cc(C)ncc1C(=O)Nc1nnc(OC[C@H]2CC[C@H](O)CC2)s1 [Example 129, 2′-chloro-N-(5-(((1r,4r)-4-hydroxycyclohexyl)methoxy)-1,3,4-thiadiazol-2-yl)-5′-methoxy-6-methyl-[4,4′-bipyridine]-3-carboxamide]
≥ 6.70 | COc1ccc(Cl)cc1-c1cc(C)ncc1C(=O)Nc1nnc(OCc2ccc([S@@](C)(=N)=O)cn2)s1 [Example 148, (S)-4-(5-chloro-2-methoxyphenyl)-6-methyl-N-(5-((5-(S-methylsulfonimidoyl)pyridin-2-yl)methoxy)-1,3,4-thiadiazol-2-yl)nicotinamide]
≥ 6.70 | CN=[S@](C)(=O)c1ccc(COc2nnc(NC(=O)c3cnc(C)cc3-c3cc(Cl)ccc3OC)s2)nc1 [Example 144, (R)-4-(5-chloro-2-methoxyphenyl)-N-(5-((5-(N,S-dimethylsulfonimidoyl)pyridin-2-yl)methoxy)-1,3,4-thiadiazol-2-yl)-6-methylnicotinamide]
≥ 6.70 | COc1cccc(F)c1-c1cn2ncc(F)c2cc1C(=O)Nc1nnc(OC[C@H]2CC[C@H](O)CC2)s1 [Example 201, 3-fluoro-6-(2-fluoro-6-methoxyphenyl)-N-(5-(((1r,4r)-4-hydroxycyclohexyl)methoxy)-1,3,4-thiadiazol-2-yl)pyrazolo(1,5-a)pyridine-5-carboxamide]
≥ 6.70 | COc1cnc(Cl)cc1-c1cc(C)ncc1C(=O)Nc1nnc(OCC23CC(F)(C2)C3)s1 [Example 78, 2′-chloro-N-(5-((3-fluorobicyclo(1.1.1)pentan-1-yl)methoxy)-1,3,4-thiadiazol-2-yl)-5′-methoxy-6-methyl-(4,4′-bipyridine)-3-carboxamide]
≥ 6.70 | COc1cnc(C)cc1-c1cc(C)ncc1C(=O)Nc1nnc(OCc2ccc(C(C)(C)C#N)cn2)s1 [Example 83, N-(5-((5-(2-cyanopropan-2-yl)pyridin-2-yl)methoxy)-1,3,4-thiadiazol-2-yl)-5′-methoxy-2′,6-dimethyl-(4,4′-bipyridine)-3-carboxamide]
≥ 6.70 | COc1cnc(Cl)cc1-c1cc(C)ncc1C(=O)Nc1nnc(OC[C@H]2CC[C@@H](O)C2)s1 (single isomer, unassigned) [Example 210]

pIC50 | SMILES
6.30 to 6.70 | COc1cnc(Cl)cc1-c1cc(C)ncc1C(=O)Nc1nnc(OCC2CCN(C)CC2)s1 [Example 178, 2′-chloro-5′-methoxy-6-methyl-N-(5-((1-methylpiperidin-4-yl)methoxy)-1,3,4-thiadiazol-2-yl)-(4,4′-bipyridine)-3-carboxamide]
≥ 6.70 | COc1cnc(Cl)cc1-c1cc(C)ncc1C(=O)Nc1nnc(OCc2ccc(C(C)(C)O)cn2)s1 [Example 58, 2′-chloro-N-(5-((5-(2-hydroxypropan-2-yl)pyridin-2-yl)methoxy)-1,3,4-thiadiazol-2-yl)-5′-methoxy-6-methyl-[4,4′-bipyridine]-3-carboxamide]
≥ 6.70 | COc1cccc(F)c1-c1cc(C)ncc1C(=O)Nc1nnc(OCC23CC(O)(C2)C3)s1 [Example 61, 4-(2-fluoro-6-methoxyphenyl)-N-(5-((3-hydroxybicyclo(1.1.1)pentan-1-yl)methoxy)-1,3,4-thiadiazol-2-yl)-6-methylnicotinamide]
≥ 6.70 | COc1c(-c2cc(C)ncc2C(=O)Nc2nnc(OCc3ccc(Cl)cn3)s2)ccnc1Cl [Example 77, 2′-chloro-N-(5-((5-chloropyridin-2-yl)methoxy)-1,3,4-thiadiazol-2-yl)-3′-methoxy-6-methyl-(4,4′-bipyridine)-3-carboxamide]
≥ 6.70 | COc1cnc(Cl)cc1-c1cc(C)ncc1C(=O)Nc1nnc(OC[C@]2(C)CCOC2)s1 (single isomer, unassigned) [Example 160]
6.30 to 6.70 | COc1ccccc1-c1cc(C)ncc1C(=O)Nc1nnc(OC[C@H](O)c2ccc(Cl)cn2)s1 [Example 27, (R)—N-(5-(2-(5-chloropyridin-2-yl)-2-hydroxyethoxy)-1,3,4-thiadiazol-2-yl)-4-(2-methoxyphenyl)-6-methylnicotinamide]
≥ 6.70 | COc1cccc(F)c1-c1cc(C)ncc1C(=O)Nc1nnc(OCc2ccc([C@@H](C)OC)cn2)s1 [Example 94, 4-(2-fluoro-6-methoxyphenyl)-N-(5-((5-((R)-1-methoxyethyl)pyridin-2-yl)methoxy)-1,3,4-thiadiazol-2-yl)-6-methylnicotinamide]
6.30 to 6.70 | COc1cccc(F)c1-c1cc(C)ncc1C(=O)Nc1nnc(OCc2cnc(C(C)(C)O)cn2)s1 [Example 119, 4-(2-fluoro-6-methoxyphenyl)-N-(5-((5-(2-hydroxypropan-2-yl)pyrazin-2-yl)methoxy)-1,3,4-thiadiazol-2-yl)-6-methylnicotinamide]
≥ 6.70 | Cc1cc(-c2c(F)cccc2OC(F)F)c(C(=O)Nc2nnc(OCc3ccc(C(C)(C)O)cn3)s2)cn1 [Example 50, 4-(2-(difluoromethoxy)-6-fluorophenyl)-N-(5-((5-(2-hydroxypropan-2-yl)pyridin-2-yl)methoxy)-1,3,4-thiadiazol-2-yl)-6-methylnicotinamide]
≥ 6.70 | COc1ccc(Cl)cc1-c1cc(C)ncc1C(=O)Nc1nnc(OCc2ccc([S@@](C)(=N)=O)cc2)s1 [Example 123, (S)-4-(5-chloro-2-methoxyphenyl)-6-methyl-N-(5-((4-(S-methylsulfonimidoyl)benzyl)oxy)-1,3,4-thiadiazol-2-yl)nicotinamide]
≥ 6.70 | COc1cccc(F)c1-c1cc(C)ncc1C(=O)Nc1nnc(OC[C@H]2CC[C@H](O)CC2)s1 [Example 104, 4-(2-fluoro-6-methoxyphenyl)-N-(5-(((1r,4r)-4-hydroxycyclohexyl)methoxy)-1,3,4-thiadiazol-2-yl)-6-methylnicotinamide]
≥ 6.70 | COc1cnc(Cl)cc1-c1cc(C)ncc1C(=O)Nc1nnc(OCC2CCC(F)(F)CC2)s1 [Example 153, 2′-chloro-N-(5-((4,4-difluorocyclohexyl)methoxy)-1,3,4-thiadiazol-2-yl)-5′-methoxy-6-methyl-(4,4′-bipyridine)-3-carboxamide]
≥ 6.70 | COc1cnc(Cl)cc1-c1cc(C)ncc1C(=O)Nc1nnc(OC[C@@H]2CO[C@H](CO)CO2)s1 (racemic) [Example 237, rel-2′-chloro-N-(5-(((2s,5r)-5-(hydroxymethyl)-1,4-dioxan-2-yl)methoxy)-1,3,4-thiadiazol-2-yl)-5′-methoxy-6-methyl-(4,4′-bipyridine)-3-carboxamide]
≥ 6.70 | COc1ccc(Cl)cc1-c1cc(C)ncc1C(=O)Nc1nnc(OCc2ccc(CO)cn2)s1 [Example 39, 4-(5-chloro-2-methoxyphenyl)-N-(5-((5-(hydroxymethyl)pyridin-2-yl)methoxy)-1,3,4-thiadiazol-2-yl)-6-methylpyridine-3-carboxamide]
≥ 6.70 | COc1cnc(Cl)cc1-c1cc(C)ncc1C(=O)Nc1nnc(OC[C@@H]2CCOC2(C)C)s1 (single isomer, unassigned) [Example 191]
≥ 6.70 | COc1cnc(C)cc1-c1cc(C)ncc1C(=O)Nc1nnc(OCc2ccc(Cl)cn2)s1 [Example 36, N-(5-((5-chloropyridin-2-yl)methoxy)-1,3,4-thiadiazol-2-yl)-5′-methoxy-2′,6-dimethyl-(4,4′-bipyridine)-3-carboxamide]
